Reference: patent US12715865B2, “Modulators of the integrated stress response pathway” (EVOTEC INTERNATIONAL GMBH, priority 2020, dated 2026)

Test system: Tunicamycin induced ISR (ATF4) in wild-type HEK293 cells
Experiment: HEK-ATF4 High Content Imaging assay (ATF4 signal ratio between nucleus and cytoplasm)
Assay type: cell-based
Conditions: Homo sapiens, HEK293, 6 h, prevention of Tunicamycin induced ISR, 6 hrs incubation, read-out: Activity (IC50, HEK-ATF4 readout)
Procedure: II Biological Assay HEK-ATF4 High Content Imaging Assay
Example compounds were tested in the HEK-ATF4 High Content Imaging assay to assess their pharmacological potency to prevent Tunicamycin induced ISR. Wild-type HEK293 cells were plated in 384-well imaging assay plates at a density of 12,000 cells per well in growth medium (containing DMEM/F12, 10% FBS, 2 mM L-Glutamine, 100 U/mL Penicillin-100 μg/mL Streptomycin) and incubated at 37° C., 5% CO2. 24-hrs later, the medium was changed to 50 μl assay medium per well (DMEM/F12, 0.3% FBS, 2 mM L-Glutamine, 100 U/mL Penicillin-100 μg/mL Streptomycin). Example compounds were serially diluted in dimethyl sulfoxide (DMSO), spotted into intermediate plates and prediluted with assay medium containing 3.3 μM Tunicamycin to give an 11-fold excess of final assay concentration. In addition to the example compound testing area, the plates also contained multiples of control wells for assay normalization purposes, wells containing Tunicamycin but no example compounds (High control), as well as wells containing neither example compound nor Tunicamycin (Low control). The assay was started by transferring 5 μl from the intermediate plate into the assay plates, followed by incubation for 6 hrs at 37° C., 5% CO2. Subsequently, cells were fixed (4% PFA in PBS, 20 min at room temperature) and submitted to indirect ATF4 immunofluorescence staining (primary antibody rabbit anti ATF4, clone D4B8, Cell Signaling Technologies; secondary antibody Alexa Fluor 488 goat anti-rabbit IgG (H+L), Thermofisher Scientific). Nuclei were stained using Hoechst dye (Thermofisher Scientific), and plates were imaged on an Opera Phenix High Content imaging platform equipped with 405 nm and 488 nm excitation. Finally, images were analyzed using script based algorithms. The main readout HEK-ATF4 monitored the ATF4 signal ratio between nucleus and cytoplasm. Tunicamycin induced an increase in the overall ATF4 ratio signal, which was prevented by ISR modulating example compounds. In addition, HEK-CellCount readout was derived from counting the number of stained nuclei corresponding to healthy cells. This readout served as an internal toxicity control.

`O=C(COc1ccc(Cl)c(F)c1)N[C@H]1CCN(c2nnc(-c3ccc(Cl)cc3)o2)C[C@@H]1O` (stereo in doubt) [Example 12, 2-(4-Chloro-3-fluorophenoxy)-N-[(3S,4S)-1-[5-(4-chlorophenyl)-1,3,4-oxadiazol-2-yl]-3-hydroxypiperidin-4-yl]acetamide] and `O=C(COc1ccc(Cl)c(F)c1)NC1CCN(c2nnc(-c3ccc(Cl)cc3)o2)CC1` [Example 4, 2-(4-chloro-3-fluoro-phenoxy)-N-[1-[5-(4-chlorophenyl)-1,3,4-oxadiazol-2-yl]-4-piperidyl]acetamide] fall in the same range of IC50: 0.001 to 0.5 µM for the first, 0.001 to 0.5 µM for the second.

First: O=C(COc1ccc(Cl)c(F)c1)NC1CCN(c2nnc(-c3ccc(Cl)cn3)o2)CC1 [Example 1, 2-(4-chloro-3-fluorophenoxy)-N-{1-[5-(5-chloropyridin-2-yl)-1,3,4-oxadiazol-2-yl]piperidin-4-yl}acetamide]
Second: O=C(COc1ccc(Cl)c(F)c1)NC1CCCN(c2nnc(-c3ccc(Cl)cc3)o2)CC1 (centres unmarked) [Example 6, 2-(4-chloro-3-fluorophenoxy)-N-{1-[5-(4-chlorophenyl)-1,3,4-oxadiazol-2-yl]azepan-4-yl}acetamide]
The IC50 of the first is lower: 0.001 to 0.5 µM for the first, 0.5 to 2 µM for the second.

First: O=C(COc1cnc(Cl)c(F)c1)NC1CCN(c2nnc(-c3ccc(Cl)cc3)o2)CC1 [Example 2, 2-[(6-chloro-5-fluoropyridin-3-yl)oxy]-N-{1-[5-(4-chlorophenyl)-1,3,4-oxadiazol-2-yl]piperidin-4-yl}acetamide]
Second: O=C(COc1ccc(Cl)c(F)c1)N[C@H]1CCCN(c2nnc(-c3ccc(Cl)cc3)o2)CC1 [Example 13, 2-(4-Chloro-3-fluorophenoxy)-N-[(4S)-1-[5-(4-chlorophenyl)-1,3,4-oxadiazol-2-yl]azepan-4-yl]acetamide]
The IC50 of the first is lower: 0.001 to 0.5 µM for the first, 0.5 to 2 µM for the second.

First: O=C(COc1ccc(Cl)c(F)c1)NC1CCN(c2nnc(CCCC(F)(F)F)o2)CC1 [Example 5, 2-(4-Chloro-3-fluorophenoxy)-N-{1-[5-(4,4,4-trifluorobutyl)-1,3,4-oxadiazol-2-yl]piperidin-4-yl}acetamide]
Second: O=C(COc1ccc(Cl)c(F)c1)NC1CCN(c2nnc(OCCOC(F)(F)F)o2)CC1 [Example 9, 2-(4-chloro-3-fluorophenoxy)-N-(1-{5-[2-(trifluoromethoxy)ethoxy]-1,3,4-oxadiazol-2-yl}piperidin-4-yl)acetamide]
The IC50 of the first is higher: 0.5 to 2 µM for the first, 0.001 to 0.5 µM for the second. The second is the more potent here.

First: O=C(COc1ccc(Cl)c(F)c1)N[C@H]1[C@@H]2CN(c3nnc(-c4ccc(Cl)cc4)o3)C[C@@H]21 [Example 7, 2-(4-Chloro-3-fluorophenoxy)-N-[(1R,5S,6R)-3-[5-(4-chlorophenyl)-1,3,4-oxadiazol-2-yl]-3-azabicyclo[3.1.0]hexan-6-yl]acetamide]
Second: O=C(COc1ccc(Cl)c(F)c1)N[C@@H]1CCCN(c2nnc(-c3ccc(Cl)cc3)o2)CC1 [Example 14, 2-(4-chloro-3-fluorophenoxy)-N-[(4R)-1-[5-(4-chlorophenyl)-1,3,4-oxadiazol-2-yl]azepan-4-yl]acetamide]
The IC50 of the first is lower: 0.5 to 2 µM for the first, 2 to 15 µM for the second.

`O=C(COc1ccc(Cl)c(F)c1)NN1CCN(c2nnc(-c3ccc(Cl)cc3)o2)CC1` [Example 8, 2-(4-Chloro-3-fluorophenoxy)-N-{4-[5-(4-chlorophenyl)-1,3,4-oxadiazol-2-yl]piperazin-1-yl}acetamide] and `O=C(COc1ccc(Cl)c(F)c1)NC1CCN(c2nnc(N3CC(OC(F)(F)F)C3)o2)CC1` [Example 10, 2-(4-chloro-3-fluorophenoxy)-N-(1-{5-[3-(trifluoromethoxy)azetidin-1-yl]-1,3,4-oxadiazol-2-yl}piperidin-4-yl)acetamide] fall in the same range of IC50: 0.001 to 0.5 µM for the first, 0.001 to 0.5 µM for the second.

Same assay, conditions: prevention of Tunicamycin induced ISR, 6 hrs incubation, read-out: Activity (IC50, HEK-ATF4 readout)

`O=C(COc1ccc(Cl)c(F)c1)N[C@@H]1CCN(c2nnc(-c3ccc(Cl)cc3)o2)C[C@H]1O` (stereo in doubt) [Example 3, 2-(4-chloro-3-fluorophenoxy)-N-[(3R*,4R*)-1-[5-(4-chlorophenyl)-1,3,4-oxadiazol-2-yl]-3-hydroxypiperidin-4-yl]acetamide] gave an IC50 of 0.001 to 0.5 µM.
Compound `O=C(COc1ccc(Cl)c(F)c1)N[C@@H]1CCN(c2nnc(-c3ccc(Cl)cc3)o2)C[C@H]1O` (stereo in doubt) [Example 11, 2-(4-Chloro-3-fluorophenoxy)-N-[(3R,4R)-1-[5-(4-chlorophenyl)-1,3,4-oxadiazol-2-yl]-3-hydroxypiperidin-4-yl]acetamide] has an IC50 of 0.5 to 2 µM.
